Test results reported in PMC2990756, “Quantitative High-Throughput Screening Identifies 8-Hydroxyquinolines as Cell-Active Histone Demethylase Inhibitors” (PLoS ONE, 2010).
Read-outs that look alike come from different tables or passages of the source.

How the values were obtained:
[1] = target: T1, JMJD2A (Homo sapiens, UniProt O75164); test: Cellular demethylase assay: H3K9me3 immunofluorescence in HeLa cells overexpressing Flag-JMJD2A; details: 24 hr
T1 sequence (O75164 1-1064): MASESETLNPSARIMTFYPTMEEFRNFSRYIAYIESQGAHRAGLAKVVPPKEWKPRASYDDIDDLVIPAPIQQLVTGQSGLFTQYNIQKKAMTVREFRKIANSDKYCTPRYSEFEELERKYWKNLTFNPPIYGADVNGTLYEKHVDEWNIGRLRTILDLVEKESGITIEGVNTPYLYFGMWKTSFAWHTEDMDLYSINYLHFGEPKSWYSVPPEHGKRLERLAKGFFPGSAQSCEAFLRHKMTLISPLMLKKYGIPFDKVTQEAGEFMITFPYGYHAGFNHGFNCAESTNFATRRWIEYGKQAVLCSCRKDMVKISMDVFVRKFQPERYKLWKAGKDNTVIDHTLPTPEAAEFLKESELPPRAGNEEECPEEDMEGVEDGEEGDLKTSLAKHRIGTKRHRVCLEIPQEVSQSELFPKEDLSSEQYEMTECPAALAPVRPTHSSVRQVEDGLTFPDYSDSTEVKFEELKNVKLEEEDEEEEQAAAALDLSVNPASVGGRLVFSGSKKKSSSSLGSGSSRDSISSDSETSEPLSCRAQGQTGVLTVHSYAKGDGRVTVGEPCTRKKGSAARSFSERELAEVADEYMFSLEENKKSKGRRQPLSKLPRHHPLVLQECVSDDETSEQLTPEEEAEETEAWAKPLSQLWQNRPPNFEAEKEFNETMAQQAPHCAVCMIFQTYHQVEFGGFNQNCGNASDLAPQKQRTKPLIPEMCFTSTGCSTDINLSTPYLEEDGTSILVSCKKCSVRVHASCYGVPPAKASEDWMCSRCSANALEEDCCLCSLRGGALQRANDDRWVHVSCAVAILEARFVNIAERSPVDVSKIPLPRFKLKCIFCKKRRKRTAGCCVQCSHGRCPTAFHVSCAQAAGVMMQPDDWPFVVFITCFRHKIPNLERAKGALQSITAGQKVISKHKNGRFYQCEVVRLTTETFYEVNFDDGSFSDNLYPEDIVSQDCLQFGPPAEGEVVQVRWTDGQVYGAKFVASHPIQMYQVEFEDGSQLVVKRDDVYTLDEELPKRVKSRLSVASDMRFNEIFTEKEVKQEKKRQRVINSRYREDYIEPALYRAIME
From the text: Therefore, in order to automate this process a series of images were collected for each treatment on a standard epifluorescence microscope ( Figure 5A ) and then submitted to CellProfiler Software for analysis [29]. CellProfiler was configured to analyze the images for DAPI signal, a DNA stain, enabling the program to identify the location of individual cells and create a boundary that delineates the volume of the nuclear compartment. As not all cells in a given field are transfected, the Flag-JMJD2A-expressing cells were identified by quantifying the immunofluoresence signal resulting from the Flag antibody staining and using the mock transfected cells as a baseline for the signal intensity of non-transfected cells. Once the transfected cells were identified, the nuclear H3K9me3 immunofluorescence signal for each cell was quantified by CellProfiler. The levels of H3K9me3 staining intensity were analyzed in the DMSO vehicle treated or inhibitor treated samples. As a control and a means of determining maximal possible inhibition of demethylase activity, cells expressing the JMJD2A H188A catalytically deficient mutant were also quantified in each experiment. […] For each treatment a minimum of 400 transfected cells was analyzed and the final values of inhibition were derived from inhibition experiments carried out on three separate days (biological triplicates). […]

[2] = target: T2, JMJD2E (Homo sapiens, UniProt B2RXH2); test: MALDI-TOF MS demethylation assay, JMJD2E; details: for MALDI-TOF Data: Span: span of the fitted curve
T2 sequence (B2RXH2 1-337): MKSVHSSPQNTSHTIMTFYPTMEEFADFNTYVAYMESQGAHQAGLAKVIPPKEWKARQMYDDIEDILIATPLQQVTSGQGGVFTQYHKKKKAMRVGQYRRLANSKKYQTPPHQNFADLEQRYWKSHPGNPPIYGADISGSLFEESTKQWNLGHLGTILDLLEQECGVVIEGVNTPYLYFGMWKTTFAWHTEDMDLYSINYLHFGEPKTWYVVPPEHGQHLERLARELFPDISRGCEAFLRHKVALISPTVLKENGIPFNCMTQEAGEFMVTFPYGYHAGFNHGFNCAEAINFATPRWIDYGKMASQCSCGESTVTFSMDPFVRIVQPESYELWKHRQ
Method: Initially, JMJD2, Fe(II), ascorbate and inhibitors were pre-incubated for 15 min prior to the addition of peptide and 2OG. The reaction was incubated for 30 min before 1∶1 quenching with methanol followed by addition of four volumes of 20 mM triammonium citrate. […] The diluted assay mixture (1 µL) from JMJD2 and PHD2 assays were mixed with 1 µL of α-cyano-4-hydroxycinnamic acid and 1 µL of FIH assay mixture was mixed with 1 µL of sinapinic acid matrix, and assessed by matrix-assisted laser desorption/ionization-time of flight (MALDI-TOF).

[3] = target: PHD2 (catalytic domain) (Homo sapiens, UniProt Q9GZT9); test: MALDI-TOF MS peptide hydroxylation assay, PHD2
Method: (§1) JMJD2 assays were carried out as reported [13]. […] Initially, JMJD2, Fe(II), ascorbate and inhibitors were pre-incubated for 15 min prior to the addition of peptide and 2OG. The reaction was incubated for 30 min before 1∶1 quenching with methanol followed by addition of four volumes of 20 mM triammonium citrate. PHD2 and FIH assays were carried out as described [41], [42] with minor modifications. PHD2 assay consisted of PHD2 (1 µM), FAS (10 µM), SA (100 µM), 2OG (60 µM) and HIF-1α^556–574CODD peptide (50 µM), in 50 mM HEPES (pH 7.5) with varying concentrations of inhibitors (final DMSO concentration was 5%). Initially, PHD2, Fe(II), ascorbate and inhibitors were pre-incubated for 15 min prior to the addition of peptide and 2OG. The reaction was incubated for 30 min before 1∶1 quenching with 1% TFA followed by addition of three volumes of 20 mM triammonium citrate. FIH assay consisted of FIH (1 µM), FAS (10 µM), SA (100 µM), 2OG (100 µM) and HIF-1α^786–826CAD peptide (100 µM), in 50 mM HEPES (pH 7.5) with varying concentrations of inhibitors (final DMSO concentration was 5%). […] The diluted assay mixture (1 µL) from JMJD2 and PHD2 assays were mixed with 1 µL of α-cyano-4-hydroxycinnamic acid and 1 µL of FIH assay mixture was mixed with 1 µL of sinapinic acid matrix, and assessed by matrix-assisted laser desorption/ionization-time of flight (MALDI-TOF).

[4] = target: T3, JMJD2A (Homo sapiens, UniProt O75164); test: MALDI-TOF MS demethylation assay, JMJD2A
T3 sequence (O75164 1-359 limits assumed): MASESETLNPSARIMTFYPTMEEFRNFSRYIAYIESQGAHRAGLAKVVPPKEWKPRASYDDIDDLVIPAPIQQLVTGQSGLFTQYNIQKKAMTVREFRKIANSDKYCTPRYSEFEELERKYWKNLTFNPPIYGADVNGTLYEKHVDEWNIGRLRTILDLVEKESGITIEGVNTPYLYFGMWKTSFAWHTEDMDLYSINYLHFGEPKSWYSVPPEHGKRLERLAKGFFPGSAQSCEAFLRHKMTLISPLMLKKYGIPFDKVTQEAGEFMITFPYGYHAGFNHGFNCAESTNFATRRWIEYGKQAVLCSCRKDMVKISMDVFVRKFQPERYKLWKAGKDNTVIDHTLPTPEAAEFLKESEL
Method: as §1

[5] = target: T4, JMJD2E (KDM4E) (Homo sapiens, UniProt B2RXH2); test: qHTS fluorescence FDH-coupled JMJD2E demethylase assay; type: biochemical
T4 construct: The catalytic domain of human JMJD2E (residues 1–337); His6 (N); made in house; host or cells: E. coli
T4 sequence (B2RXH2 1-337): T2 sequence (B2RXH2 1-337)
From the text: The oxidation of formaldehyde is coupled to the reduction of NAD^+ to NADH, which is monitored by fluorescence spectroscopy. […] To this end, initial screening hits were filtered by a combination of cheminformatics (to exclude low-confidence inhibitors and autofluorescent false positives), counterscreening against the coupled-assay component formaldehyde dehydrogenase (FDH), and orthogonal direct detection of inhibition of demethylation by mass spectrometry ( Figure 1 ).
Reactions were initiated with 1 µL addition of peptide substrate solution containing final concentrations of 10 µM FAS, 50 µM 2OG, 0.25 U/mL FDH, 0.25 mM NAD^+, and 50 µM peptide substrate (ARK(me3)STGGK). A ViewLux imager (PerkinElmer, Waltham, MA) was used to measure NADH fluorescence (λex 340 nm, λem 450 nm) immediately after substrate addition and following 30 min incubation at room temperature. To record any systematic drifts in assay behavior (signal window and noise), assay plates containing no library compounds but only DMSO as a vehicle control were tested periodically (every ∼60 plates) throughout the screen.
Data were normalized to the basal response (0% activity) in the absence of enzyme and the maximal response (100% activity) in the absence of compound. Using the Hill equation, dose-response curves and IC50 values were automatically generated for each compound tested with software developed internally (www.ncgc.nih.gov/pub/openhts/curvefit/). […] The initial well fluorescence (first kinetic read) associated with each sample was stored in a database and used in the cheminformatics analysis to identify autofluorescent compounds interfering with the assay signal.

[6] = target: FIH (Homo sapiens, UniProt Q9NWT6); test: MALDI-TOF MS peptide hydroxylation assay, FIH
Method: as §1

[7] = Cytotoxicity, resazurin/resorufin (CellTiter-Blue); type: cell-based; details: human, HeLa cells
Method: Cytotoxicity testing of the 5-carboxy-8HQ on HeLa cells was conducted with the resazurin/resorufin system for cellular metabolism.
Cytotoxicity testing was done with CellTiter-Blue (Promega) according to the manufacturer's directions.

[8] = target: T2, JMJD2E; test: JMJD2E FDH-coupled assay under low and high iron conditions (iron chelation profile); type: biochemical; set-up: The catalytic domain of human JMJD2E (residues 1–337); His6 (N); made in house; host or cells: E. coli; details: Table S1; for IC50: unit not in table, from Figure 2
Method: The prioritized compounds were also evaluated in the screening assay using two different ferrous ion concentrations (termed high iron and low iron, respectively), in order to assess their propensity for iron chelation.
The ratio of IC50 values under high iron to low iron was calculated for each compound.

[9] = target: T5, formaldehyde dehydrogenase (FDH) (Pseudomonas putida, UniProt P46154); test: FDH coupling enzyme counterscreen; type: biochemical; details: Table S1, FDH counterscreen; for IC50: unit not in table, from Figure 2, read-out: qHTS Data: jmjd2e fdh IC50
T5 construct: purchased Sigma-Aldrich
From the text: Dimethylsulfoxide certified ACS grade (DMSO) was from Fisher, Inc. HEPES buffer was obtained from Gibco. […] Black solid-bottom 1,536-well assay plates were from Greiner Bio-One (Monroe, NC).

[10] = high iron, head says 20 µM FAS, read-out: qHTS Data: jmjd2e fas20um IC50
[11] = low iron 2.5 µM FAS, read-out: qHTS Data: jmjd2e fas2.5um IC50
[12] = Table S1, unit not in table, from Figure 2, read-out: qHTS Data: jmjd2e IC50
[13] = read-out: MALDI-TOF Data: IC50, Table S1, 2 µM JMJD2E, unit not in table, ~ values are poorly fitted

T5 sequence (P46154 whole entry): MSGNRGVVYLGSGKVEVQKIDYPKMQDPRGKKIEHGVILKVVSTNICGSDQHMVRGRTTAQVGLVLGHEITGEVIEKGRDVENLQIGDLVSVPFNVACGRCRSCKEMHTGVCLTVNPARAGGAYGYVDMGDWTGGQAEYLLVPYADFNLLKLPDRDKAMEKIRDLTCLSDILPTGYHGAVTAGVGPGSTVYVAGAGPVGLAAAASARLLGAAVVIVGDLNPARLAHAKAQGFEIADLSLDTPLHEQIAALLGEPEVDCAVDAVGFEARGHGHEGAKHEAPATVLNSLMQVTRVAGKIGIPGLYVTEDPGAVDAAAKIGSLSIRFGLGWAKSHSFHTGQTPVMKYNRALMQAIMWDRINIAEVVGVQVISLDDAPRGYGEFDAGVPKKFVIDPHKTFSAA
Sequence of FIH (Q9NWT6 whole entry): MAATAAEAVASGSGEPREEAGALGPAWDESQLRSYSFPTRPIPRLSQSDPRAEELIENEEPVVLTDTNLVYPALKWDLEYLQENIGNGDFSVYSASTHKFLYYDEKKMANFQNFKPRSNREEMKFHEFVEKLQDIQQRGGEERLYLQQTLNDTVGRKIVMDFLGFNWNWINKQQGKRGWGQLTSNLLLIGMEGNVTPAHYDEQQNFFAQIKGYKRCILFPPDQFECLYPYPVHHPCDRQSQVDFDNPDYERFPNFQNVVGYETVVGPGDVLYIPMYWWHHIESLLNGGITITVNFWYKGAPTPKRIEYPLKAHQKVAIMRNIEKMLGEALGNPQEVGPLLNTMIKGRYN
Sequence of PHD2 (catalytic domain) (Q9GZT9 181-426 limits assumed): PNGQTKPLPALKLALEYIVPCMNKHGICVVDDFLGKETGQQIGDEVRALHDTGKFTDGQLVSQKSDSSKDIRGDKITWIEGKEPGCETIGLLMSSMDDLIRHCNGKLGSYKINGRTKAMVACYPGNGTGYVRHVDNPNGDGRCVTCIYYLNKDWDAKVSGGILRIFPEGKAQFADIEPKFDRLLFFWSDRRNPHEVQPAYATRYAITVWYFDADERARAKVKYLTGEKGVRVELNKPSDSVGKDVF

Row | SMILES | MALDI-TOF Data: Span ([2]; Table S1, 2 µM JMJD2E) | IC50 [8, 10] | IC50 [8, 11] | qHTS Data: jmjd2e fdh CurveClass [9] | IC50 [5, 12] | IC50 [2, 13] | further results
1 | COC(=O)CNC(=O)C(=O)OC [DMOG, dimethyloxalylglycine] |  |  |  |  |  |  | JMJD2A demethylase activity remaining ([1]; 2.5mM treatment): approximately 20%
2 | Oc1ccc(CNc2ccccc2F)c2cccnc12 [SID 852641] |  |  |  |  |  |  | IC50 [2]: 6 µM; IC50 [3]: 14.4 µM; IC50 [4]: 8.2 µM; IC50 ([5]; Figure 3, substituted 8-hydroxyquinolines against JMJD2E, read-out: IC50 /μM (qHTS IC50, FDH-coupled assay)): 1.1 µM; IC50 [6]: 19.6 µM
3 | O=C(O)c1ccc(O)c2ncccc12 [SID 85736331, 5-carboxy-8-hydroxyquinoline] |  |  |  |  |  |  | IC50 [7]: 292 µM; IC50 [6]: 20.5 µM
4 | CCOc1cc(CNc2ccc(N3CCCCC3)cc2)cc(Br)c1OCC(=O)NC(C)(C)C [compound 22412645] | ~ 104.5 | 3.16 µM | 39.8 µM | Inactive | 3.16 µM |  | qHTS Data: jmjd2e fas2.5um Curve comment ([8]; low iron 2.5 µM FAS): Inconclusive
5 | CCOc1c(Cl)cc(CNc2ccc(N3CCCC3)cc2)cc1OC [compound 24795526] | ~ 11904 | 19.9 µM | 3.98 µM | Inactive | 8.91 µM |  | qHTS Data: jmjd2e fas20um CurveClass ([8]; high iron): Poor quality curve
6 | O=c1nc(N/N=C/c2ccccn2)cn[nH]1 [compound 24822918] | 97.61 | 15.8 µM | 7.08 µM | Inconclusive | 10 µM | ~7.05 µM | 
7 | O=c1c2ccccc2sn1-c1nccs1 [compound 24830882] | 82.19 | 3.98 µM | 7.94 µM | Inactive | 7.94 µM | 10.2 µM | 
8 | COc1cccc(/C=N/NC(=O)CNC(=O)COc2cccc(C)c2)c1O [compound 26660958] | 89.52 |  | 4.47 µM | Inactive | 2.82 µM | 10.2 µM | qHTS Data: jmjd2e fas20um CurveClass ([8]; high iron): Inconclusive
9 | COc1cccc(/C=N/NC(=O)CNC(=O)CCc2ccccc2)c1O [compound 26660959] | 88.08 | 12.6 µM | 7.08 µM | Inconclusive | 3.98 µM | 8.6 µM | IC50 [9]: 39.8 µM
10 | C(=N\Nc1nc(-c2ccccn2)nc2ccccc12)/c1ccccc1 [compound 26666061] |  | 10 µM | 22.4 µM | Inactive | 8.91 µM |  | MALDI-TOF Data: Comments ([2]; Table S1): solubility problems
11 | C=CCn1c(SCC(=O)c2ccc(O)c(O)c2)nnc1-c1cccnc1 [compound 26671532] | 91.73 | 1.26 µM | 7.94 µM | Poor quality curve | 3.55 µM | 11.8 µM | IC50 [9]: 14.1 µM
12 | COc1ccc(/C=C/C(=O)NC(=S)NNC(=O)c2cnccn2)cc1 [compound 26725781] | 94.6 | 8.91 µM | 10 µM | Inactive | 7.94 µM | 3.5 µM | 
13 | Nc1ccc2nc3c(=O)n(CCc4ccccc4)c(=O)[nH]c3nc2c1 [compound 26726384] | 51.81 | 14.1 µM | 7.08 µM | Inactive | 1.78 µM | 141 µM | qHTS Data: jmjd2e fas2.5um Curve comment ([8]; low iron 2.5 µM FAS): Poor quality curve
14 | CN(C)C1C(=O)C(C(N)=O)=C(O)[C@@]2(O)C(=O)C3=C(O)c4c(O)cccc4[C@@](C)(O)C3[C@H](O)C12 (some centres unmarked) [compound 50105558] | 94.16 | 8.91 µM | 14.1 µM | Poor quality curve | 2 µM | 54.8 µM | IC50 [9]: 3.55 µM
15 | Br.Oc1ccc(C2CNCCc3c2cc(O)c(O)c3Cl)cc1 (centres unmarked) [compound 50106351] | 93.35 | 7.94 µM | 6.31 µM | Inactive | 25.1 µM | 8.4 µM | 
16 | NC(Cc1cc(O)c(O)cc1O)C(=O)O (centres unmarked) [compound 50106437] |  | 2.24 µM | 7.94 µM | Inactive | 12.6 µM |  | MALDI-TOF Data: Comments ([2]; Table S1): solubility problems
17 | COC(=O)c1ccnc(C(=O)OC)c1 [dimethyl-2,4-PDCA] |  |  |  |  |  |  | JMJD2A demethylase activity remaining ([1]; 1mM treatment): approximately 35%
